According to PMC8636943:

Experiments:
[1] = system: anti-VEGF165 aptamer (DNA, aptamer) CCGTCTTCCAGACAAGAGTGCAGGG; test: biolayer interferometry (Octet RED96); details: binding buffer (composition not given), 25 °C
[2] = system: G4-Apt (DNA, G4) AGGGACGGGACCGTCTTCCAGACAAGAGTGCAGGGAGGGACGGGA; test: biolayer interferometry (Octet RED96); details: binding buffer (composition not given), 25 °C
VEGF165 = VEGF165 (human, UniProt P15692-4 27-191); test: BLI; BLI (Octet RED96), 25 C, 1000 rpm, 200 uL binding buffer (composition not given), VEGF165 6.25-100 nM, BSA blank as reference; details: protein: commercial, chain copies: 2
Sequence of VEGF165 (P15692 other isoform, or with tags, fused parts or gaps): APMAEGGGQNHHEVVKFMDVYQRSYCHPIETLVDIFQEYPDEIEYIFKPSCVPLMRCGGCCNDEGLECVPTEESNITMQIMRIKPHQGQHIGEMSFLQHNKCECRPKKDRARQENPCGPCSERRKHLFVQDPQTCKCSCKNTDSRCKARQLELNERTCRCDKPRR

Molecule: Cc1ccc2c(c1)sc(-c1ccc(N(C)C)cc1)[n+]2C
- binding [1]: no
- K D [2]: 52900 nM

Molecule: CCGTCTTCCAGACAAGAGTGCAGGG (ssDNA) [anti-VEGF165 aptamer]
- Kd (VEGF165; B-DNA form by CD): 0.287 nM

Molecule: AGGGACGGGACCGTCTTCCAGACAAGAGTGCAGGGAGGGACGGGA (structured_DNA) [G4-Apt]
- Kd (VEGF165; largely parallel G-quadruplex by CD): 0.538 nM
